From patent US10952431B2, “Releasable encapsulation compositions” (Battelle Memorial Institute, priority 2016, dated 2021)

Assay: Particle size distribution before and after encapsulation
Type: physicochemical
Conditions: FIG. 6A, non-encapsulated
From the text: FIGS. 6A-6B show charts of the particle size distribution of TAED. […] Upon encapsulation, approximately 50% of the particles are distributed in the particle size range of 1 and 2 microns. This information also confirms the TAED is coated with the nonionic amphiphilic graft copolymer (PLMA-g-PEG).

- particle size (majority of particles): 20-30 microns
SMILES: CC(=O)N(CCN(C(C)=O)C(C)=O)C(C)=O [TAED, tetraacetylethylene-diamine]
